From BindingDB's records for doi:10.1016/j.bmc.2004.09.055 (Crefsip, 2005)

target: Aspartate--tRNA ligase (Escherichia coli (strain K12), UniProt P21889); assay: Determination of the Inhibition Type and Constant (Ki); conditions: pH 7.5; 37 °C
Description: The Km and Kappm for the amino acid substrate were first calculated from Lineweaver-Burk plots. The Ki values were calculated from the Kappm vs [I] plot. The Ki values for the inhibitors with respect for the amino acid substrates were determined by measuring the apparent Km for the amino acid in the presence of saturating concentrations of both ATP and tRNA, and of various fixed concentrations of the inhibitor.

Chain of Aspartate--tRNA ligase (P21889 whole entry): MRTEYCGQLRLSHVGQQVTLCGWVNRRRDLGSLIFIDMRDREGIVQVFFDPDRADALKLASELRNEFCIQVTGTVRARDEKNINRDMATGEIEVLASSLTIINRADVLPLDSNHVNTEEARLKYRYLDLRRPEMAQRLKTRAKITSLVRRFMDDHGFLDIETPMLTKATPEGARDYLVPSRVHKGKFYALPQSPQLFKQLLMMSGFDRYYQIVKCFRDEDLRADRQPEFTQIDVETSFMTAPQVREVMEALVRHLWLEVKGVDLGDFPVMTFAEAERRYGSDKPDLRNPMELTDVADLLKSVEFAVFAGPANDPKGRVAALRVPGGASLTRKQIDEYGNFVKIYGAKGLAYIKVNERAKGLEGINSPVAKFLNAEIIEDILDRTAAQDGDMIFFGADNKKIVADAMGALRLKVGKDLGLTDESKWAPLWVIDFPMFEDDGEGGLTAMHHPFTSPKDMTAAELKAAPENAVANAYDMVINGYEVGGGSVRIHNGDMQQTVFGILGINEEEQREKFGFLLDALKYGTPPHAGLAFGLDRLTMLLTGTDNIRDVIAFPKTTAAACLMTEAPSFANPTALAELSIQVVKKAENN

Structure (SMILES)	Ki [nM]
Nc1ncnc2c1ncn2[C@@H]1O[C@H](COS(=O)(=O)NC(=O)C(N)CC(=O)O)[C@@H](O)[C@H]1O (stereo partly drawn) [3-amino-4-[({[(2R,3S,4R,5R)-5-(6-amino-9H-purin-9-yl)-3,4-dihydroxyoxolan-2-yl]methoxy}sulfonyl)amino]-4-oxobutanoic acid]	15
Nc1ncnc2c1ncn2[C@@H]1O[C@H](COP(=O)(O)OC[C@@H](N)CC(=O)O)[C@@H](O)[C@H]1O [(3S)-3-amino-4-[({[(2R,3S,4R,5R)-5-(6-amino-9H-purin-9-yl)-3,4-dihydroxyoxolan-2-yl]methoxy}(hydroxy)phosphoryl)oxy]butanoic acid]	45000
Nc1ncnc2c1ncn2[C@@H]1O[C@H](COP(=O)(O)CC(=O)C(N)CC(=O)O)[C@@H](O)[C@H]1O (stereo partly drawn) [3-amino-5-({[(2R,3S,4R,5R)-5-(6-amino-9H-purin-9-yl)-3,4-dihydroxyoxolan-2-yl]methoxy}(hydroxy)phosphoryl)-4-oxopentanoic acid]	123
